Biological target: T1, P-selectin binding to P-selectin glycoprotein ligand-1 (PSGL-1) (Homo sapiens, UniProt P16109)
T1 construct: truncated form of human P-selectin comprised of the lectin and EGF domains (P-LE)
T1 sequence (P16109 42-198): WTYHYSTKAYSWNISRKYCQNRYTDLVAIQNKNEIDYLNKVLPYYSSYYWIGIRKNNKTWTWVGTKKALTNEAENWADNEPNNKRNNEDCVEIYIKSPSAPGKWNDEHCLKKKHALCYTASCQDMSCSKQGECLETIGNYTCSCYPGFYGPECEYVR
Test: Biacore inhibition of P-selectin binding to PSGL-1 (P-LE binding to immobilized SGP-3)
Details: 1 mM; read-out: percent inhibition of binding (positive control)
Protocol: Compounds of the present teachings can be assayed for selectin inhibitory activity using any of the procedures known in the art. One convenient procedure is the determination of IC50 values for inhibition of P-selectin binding to P-selectin glycoprotein ligand-1 (PSGL-1) using a Biacore instrument.
The Biacore 3000 is an instrument that uses surface plasmon resonance to detect binding of a solution phase analyte to an immobilized ligand on a sensor chip surface. The analyte sample is injected under flow using a microfluidic system. Binding of analyte to ligand causes a change in the angle of refracted light at the surface of the sensor chip, measured by the Biacore instrument in resonance units (RUs).
SGP-3 is a purified sulfoglycopeptide form of human PSGL-1 that contains the P-selectin binding determinants (See Somers et al., 2000, Cell 103, 467-479). […]
The Biacore assay measures the signal in RU produced by binding of P-LE to SGP-3 in the presence and absence of inhibitors. Percent inhibition of binding is calculated by dividing the inhibited signal by the uninhibited signal subtracting this value from one then multiplying by one hundred. […] The data from this titration are plotted, RU values vs. concentration, and the IC50 is determined by extrapolation from the plot. […]

inhibition at 1000 µM: 50%
Structure (SMILES): CC1(C)[C@@H](O[C@H]2O[C@H](C(=O)O)[C@@H](O)[C@H](O)[C@H]2O[C@@H]2O[C@H](C(=O)O)[C@@H](O)[C@H](O)[C@H]2O)CC[C@]2(C)[C@H]3C(=O)C=C4[C@@H]5C[C@@](C)(C(=O)O)CC[C@]5(C)CC[C@@]4(C)[C@]3(C)CC[C@@H]12 [Glycyrrhizin]

— patent US20080125454A1, “Methods and Compositions for Treatment of Scleritis and Related Disorders” (Wyeth, priority 2006, published 2008)
